Test results: publication PMC10449621, “Engineering cellular communication between light-activated synthetic cells and bacteria” (Nature Chemical Biology, 2023)
Where “and” joins values, the source holds several entries; their conditions need not be identical. Equal entries are not always repeated. Entries after “also recorded” stand apart in the source; their conditions may differ.

Assays:
[1] = system: BjaRS107R (B0033|ATG) receiver cells; assay: BjaR receiver cell AHSL dose-response (gfp reporter, plate reader); format: cell-based, E. coli XL10-Gold
Excerpt: (§1) These findings are consistent with the predicted translation initiation rates of the respective sequences—translation from the BBa_B0033 RBS provides 1% of protein yield compared to the BBa_B0034 RBS, just as an CTG start codon provides 1% of the protein yield compared to an ATG start codon[30],[31]. This also offers support as to why the ON-state gfp expression level increased in variants with a tighter OFF-state; more cellular resources were available for GFP synthesis when comparatively fewer were allocated to BjaR synthesis. To elucidate the impact of the S107R variant on gene circuit performance, we introduced the S107R variant alone back into the bjaRWT gene, in the context of the BBa_B0033 RBS background.
(§2) In addition to quantifying how these BjaR receiver cells responded to their branched, cognate ligand, we also sought to determine whether the BjaR receiver cells could be activated by structurally dissimilar AHSLs involved in the LuxI/R, EsaI/R, LasI/R and RhlI/R QS systems previously used in synthetic cell communication[5],[7],[8]. To this end, we measured the fluorescence of BjaR receiver cells grown in the presence of their activators, 3OC6-HSL, 3OC12-HSL and C4-HSL, respectively (Supplementary Fig. 13a).
(§3) The BjaR reporter plasmids were retransformed into E. coli XL10-Gold cells for each experiment. A single colony was used to inoculate 5 ml LB + Amp media and incubated at 37 °C, 225 r.p.m. overnight. Overnight cultures were diluted 1/250 or 1/500 in 5 ml M9 minimal media + Amp and incubated at 37 °C, 225 r.p.m. for 3 h and 45 min (until OD600 = ~0.075). Cultures were diluted down to OD600 = 0.05 with M9 minimal media + Amp, and 200 µl was added to wells of a 96-well plate containing 1 µl IV-HSL dissolved in DMSO or 1 µl BjaI CFPS reactions (IV-HSL concentrations obtained from serial dilution from 63.2 µM to 632 pM; final DMSO concentration = 0.5%). Cells were incubated at 37 °C, 800 r.p.m., in a thermomixer with a heated lid for 4 h. Fluorescence and OD600 were measured in a Tecan M1000 infinite plate reader (excitation, 488 nm; emission, 510 nm; bandwidth, 5 nm; gain, 101 and z position, 21,311 µm). The dose–response curves were fitted to the function indicated by Eq. (1), where a = maximal fluorescence output, b = basal fluorescence output, X = concentration of AHSL, GFP = fluorescence at the given condition, EC50 = AHSL at 50% maximal fluorescence output and h = hill coefficient. EC50 and h were derived using the nonlinear regression model based on Eq. (1), in MATLAB. A summary of the dose–response data is available in Supplementary Table 1.1 GFP=b+a−b/1+10^logEC50−X×h

[2] = system: BjaRWT (B0033|ATG) receiver cells; assay: as above; format: cell-based, E. coli XL10-Gold; conditions: for Mean normalised fluorescence / Normalised fluorescence / GFP: sheet 3e; for Normalised fluorescence / GFP: Expt1-3; for GFP: raw fluorescence ex 488/em 510 nm
Excerpt: as §1, §2, §3

pRhlI promoters (RhlR) = system: pRhlI promoters (RhlR); set-up: method as in PMID 29992956; conditions: cited from earlier work

SMILES	Mean normalised fluorescence ([2]; Log([ASHL]) -6.5)	Mean normalised fluorescence ([2]; Log([ASHL]) -7)	Normalised fluorescence ([2]; Log([ASHL]) -7)	GFP ([2]; Log([ASHL]) -7)	Mean normalised fluorescence ([2]; Log([ASHL]) -7.5)	Normalised fluorescence ([2]; Log([ASHL]) -7.5)	GFP ([2]; Log([ASHL]) -7.5)	Mean normalised fluorescence ([2]; Log([ASHL]) -8)	Normalised fluorescence ([2]; Log([ASHL]) -8)	GFP ([2]; Log([ASHL]) -8)	Mean normalised fluorescence ([2]; Log([ASHL]) -8.5)	Normalised fluorescence ([2]; Log([ASHL]) -8.5)	GFP ([2]; Log([ASHL]) -8.5)	Mean normalised fluorescence ([2]; Log([ASHL]) -9)	Normalised fluorescence ([2]; Log([ASHL]) -9)	GFP ([2]; Log([ASHL]) -9)	Mean normalised fluorescence ([2]; Log([ASHL]) -9.5)	Normalised fluorescence ([2]; Log([ASHL]) -9.5)	GFP ([2]; Log([ASHL]) -9.5)	Mean normalised fluorescence ([2]; Log([ASHL]) -10)	further results
CCCC(=O)CC(=O)N[C@H]1CCOC1=O [3OC6-HSL, N-(3-oxo-hexanoyl)-L-homoserine lactone]	–	–	–	–	–	–	–	–	–	–	–	–	–	–	–	–	–	–	–	–	gfp expression in response to non-cognate AHSL [1]: minimal GFP was produced; gfp expression in response to non-cognate AHSL [2]: did not express gfp; also recorded: minimal GFP was produced
CCCC(=O)N[C@H]1CCOC1=O [C4HSL]	89755.1	24851.4	25795.6 and 21987 and 26771.5	6504 and 5697 and 8639	5633.53	5943.36 and 4742.76 and 6214.47	1544 and 1323 and 2047	2030.88	2169.85 and 1704.52 and 2218.28	628 and 544 and 810	1297.09	1166.04 and 1369.65 and 1355.57	416 and 558 and 438	1170.67	1077.7 and 1245.14 and 1189.19	387 and 507 and 403	1170.76	1086.47 and 1200.78 and 1225.03	387 and 492 and 393	1105.3	Normalised fluorescence ([2]; Log([ASHL]) -6.5): 87597.7 and 86111.2 and 95556.3; GFP ([2]; Log([ASHL]) -6.5): 21193 and 21411 and 30615; Normalised fluorescence ([2]; Log([ASHL]) -10): 1065.28 and 1106.75 and 1143.86; GFP ([2]; Log([ASHL]) -10): 377 and 461; Mean normalised fluorescence ([2]; Log([ASHL]) -10.5): 1140.47; Normalised fluorescence ([2]; Log([ASHL]) -10.5): 1078 and 1145.04 and 1198.38; GFP ([2]; Log([ASHL]) -10.5): 375 and 468 and 384; Mean normalised fluorescence ([2]; Log([ASHL]) -11): 1127.16; Normalised fluorescence ([2]; Log([ASHL]) -11): 1056.83 and 1148.2 and 1176.47; GFP ([2]; Log([ASHL]) -11): 372 and 467 and 379; Mean normalised fluorescence ([2]; Log([ASHL]) -11.5): 1165.29; Normalised fluorescence ([2]; Log([ASHL]) -11.5): 1094.25 and 1223.38 and 1178.24; GFP ([2]; Log([ASHL]) -11.5): 376 and 387 and 476
CCCCCCCCCCCC(=O)N[C@H]1CCOC1=O [C12-HSL]	3660.47	1319.41	1877.08 and 986.388 and 1094.76	569 and 370 and 480	1262.26	1653.64 and 971.756 and 1161.39	519 and 366 and 490	1041.4	1139.61 and 918.045 and 1066.55	388 and 367 and 474	1040.51	943.135 and 1084.52 and 1093.88	358 and 472 and 378	1031.28	984.805 and 1073.68 and 1035.35	376 and 464 and 363	1017.68	918.306 and 1057.93 and 1076.79	351 and 459 and 368	1062.17	Normalised fluorescence ([2]; Log([ASHL]) -10): 938.8 and 1069.72 and 1178; GFP ([2]; Log([ASHL]) -10): 357 and 459 and 389; Mean normalised fluorescence ([2]; Log([ASHL]) -10.5): 1063.23; Normalised fluorescence ([2]; Log([ASHL]) -10.5): 1055.63 and 1095.89 and 1038.16; GFP ([2]; Log([ASHL]) -10.5): 379 and 459 and 370; Mean normalised fluorescence ([2]; Log([ASHL]) -11): 1104.13; Normalised fluorescence ([2]; Log([ASHL]) -11): 961.19 and 1115.34 and 1235.86; GFP ([2]; Log([ASHL]) -11): 359 and 475 and 401; Mean normalised fluorescence ([2]; Log([ASHL]) -11.5): 1958.08; GFP ([2]; Log([ASHL]) -11.5): 637 and 706 and 473
CCCCCC(=O)N[C@H]1CCOC1=O [C6HSL]	1368.65	1069.59	1188.52 and 915.717 and 1104.54	407 and 365 and 478	1072.17	1112.94 and 960.351 and 1143.21	387 and 361 and 491	1019.8	1032.26 and 951.298 and 1075.83	373 and 371 and 472	1002.73	909.599 and 1094.09 and 1004.49	364 and 473 and 363	1027.01	916.088 and 1080.14 and 1084.79	364 and 464 and 378	1017.95	932.091 and 1057.66 and 1064.1	365 and 455 and 371	1072.17	Normalised fluorescence ([2]; Log([ASHL]) -6.5): 1655.84 and 1049.46 and 1400.63; GFP ([2]; Log([ASHL]) -6.5): 525 and 399 and 567; Normalised fluorescence ([2]; Log([ASHL]) -10): 960.615 and 1126.04 and 1129.87; GFP ([2]; Log([ASHL]) -10): 370 and 475 and 378; Mean normalised fluorescence ([2]; Log([ASHL]) -10.5): 1041.96; Normalised fluorescence ([2]; Log([ASHL]) -10.5): 969.437 and 1060.85 and 1095.6; GFP ([2]; Log([ASHL]) -10.5): 369 and 456 and 376; Mean normalised fluorescence ([2]; Log([ASHL]) -11): 1037.02; Normalised fluorescence ([2]; Log([ASHL]) -11): 937.562 and 1077.9 and 1095.59; GFP ([2]; Log([ASHL]) -11): 358 and 462 and 368; Mean normalised fluorescence ([2]; Log([ASHL]) -11.5): 1058.71; Normalised fluorescence ([2]; Log([ASHL]) -11.5): 974.837 and 1085.17 and 1116.13; GFP ([2]; Log([ASHL]) -11.5): 366 and 368 and 469
CCCCCCCCCC(=O)CC(=O)N[C@H]1CCOC1=O [3OC12-HSL]	–	–	–	–	–	–	–	–	–	–	–	–	–	–	–	–	–	–	–	–	gfp expression in response to non-cognate AHSL [1]: minimal GFP was produced; gfp expression in response to non-cognate AHSL [2]: did not express gfp; also recorded: minimal GFP was produced
CCCC(=O)N[C@H]1CCOC1=O [C4-HSL, N-butyryl-L-homoserine lactone]	–	–	–	–	–	–	–	–	–	–	–	–	–	–	–	–	–	–	–	–	concentration required to fully activate expression from pRhlI promoters (pRhlI promoters (RhlR)): > 100 µM; sensitivity for IV-HSL over C4-HSL ([1]; C4-HSL vs IV-HSL): ~126 fold; activation of receiver cells at maximal concentration tested ([2]; 0.36 µM): partially activated; C4-HSL required relative to IV-HSL for the same fluorescence output (lower sensitivity) ([2]; C4-HSL vs IV-HSL): ~126 ×
